27 molecules from patent US7153855B2, “Pyrazolopyridinyl pyrimidine therapeutic compounds” (SmithKline Beecham Corporation, priority 2001, dated 2006) can be followed below.

SMILES strings stand for the structures.

This test concerns HSV-1. Briefly: HSV-1 infection of Vero 76 cells, viral DNA detected by hybridization capture (chemiluminescence). The format is cell-based. The following applies: Human alphaherpesvirus 1; HSV-1 in Vero 76 cells, MOI=0.001, compounds incubated 40–48 hours at 37° C.; read-out: IC50. The essentials: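 Vero 76 cells infected 45 min at 37° C with HSV-1 (MOI=0.001), seeded at 5×10^4 cells/well in 2% FBS medium with compounds, incubated 40–48 h, then lysed in 0.2 N NaOH/1% detergent. Viral DNA captured by UL13 plasmid, hybridized overnight at 42° C with digoxigenin-labeled UL15 probe, detected by anti-digoxigenin-HRP chemiluminescence.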
For orientation: IC50 means the point on the concentration scale where inhibition reaches its midpoint. With `Clc1cccc(-c2nn3c(NC4CC4)cccc3c2-c2ccnc(NC3CCCC3)n2)c1` [Example 101, 2-(3-Chlorophenyl)-3-[2-(cyclopentylamino)-4-pyrimidinyl]-N-cyclopropylpyrazolo[1,5-a]pyridin-7-amine], the IC50 was 200 nM.

In the case of `CCCCNc1nccc(-c2c(-c3ccc(NC4CCCCC4)cc3)nn3c(NCCCC)cccc23)n1` [Example 17, N-Butyl-3-[2-(butylamino)-4-pyrimidinyl]-2-[4-(cyclohexylamino)phenyl]-pyrazolo[1,5-a]pyridin-7-amine], the IC50 turned out to be 1500 nM.

Consider `Clc1cccc(-c2nn3c(NC4CCCC4)cccc3c2-c2ccnc(NC3CCCC3)n2)c1` [Example 57, 2-(3-Chlorophenyl)-N-cyclopentyl-3-[2-(cyclopentylamino)-4-pyrimidinyl]pyrazolo[1,5-a]pyridin-7-amine], for which the IC50 turned out to be 200 nM.

As to `Fc1cccc(-c2nn3c(NC4CCCC4)cccc3c2-c2ccnc(NC3CCCC3)n2)c1` [Example 56, N-Cyclopentyl-3-[2-(cyclopentylamino)-4-pyrimidinyl]-2-(3-fluorophenyl)pyrazolo[1,5-a]pyridin-7-amine], the IC50 was 200 nM.

Turning to `c1cc(-c2ccsc2)cc(-c2nn3c(NC4CCCC4)cccc3c2-c2ccnc(NC3CCCC3)n2)c1` [Example 32, N-Cyclopentyl-3-[2-(cyclopentylamino)-4-pyrimidinyl]-2-[3-(3-thienyl)phenyl]pyrazolo[1,5-a]pyridin-7-amine], the 50% inhibitory concentration (IC50) came out at 600 nM.

As for `C=CCOc1ccc(-c2nn3c(NC4CCCC4)cccc3c2-c2ccnc(NC3CC3)n2)cc1` [Example 71, 2-[4-(Allyloxy)phenyl]-N-cyclopentyl-3-[2-(cyclopropylamino)-4-pyrimidinyl]pyrazolo[1,5-a]pyridin-7-amine], the IC50 amounted to 500 nM.

`COc1ccc(-c2nn3c(N4CCCC4)cccc3c2-c2ccnc(N)n2)cc1` [Example 3, 4-[2-(4-Methoxyphenyl)-7-(1-pyrrolidinyl)pyrazolo[1,5-a]pyridin-3-yl]-2-pyrimidinamine]: the IC50 worked out at 5000 nM.

For the molecule `COc1ccc(-c2nn3c(NC4CCCC4)cccc3c2-c2ccnc(NC3CCCC3)n2)cc1` [Example 1, N-Cyclopentyl-3-[2-(cyclopentylamino)-4-pyrimidinyl]-2-(4-methoxyphenyl)-pyrazolo[1,5-a]pyridin-7-amine], the half-inhibitory concentration (IC50) is 300 nM.

`CCCCNc1nccc(-c2c(-c3ccc(-c4ccccc4)cc3)nn3c(NCCCC)cccc23)n1` [Example 15, 2-[1,1′-Biphenyl]-4-yl-N-butyl-3-[2-(butylamino)-4-pyrimidinyl]pyrazolo-[1,5-a]pyridin-7-amine]: the IC50 is 1000 nM.

For the molecule `Clc1cccc(-c2nn3c(NC4CCCC4)cccc3c2-c2ccnc(NC3CC3)n2)c1` [Example 100, 2-(3-Chlorophenyl)-N-cyclopentyl-3-[2-(cyclopropylamino)-4-pyrimidinyl]pyrazolo[1,5-a]pyridin-7-amine], the IC50 worked out at 300 nM.

In the case of `COc1ccc(-c2nn3c(NCCNS(C)(=O)=O)cccc3c2-c2ccnc(NC3CCCC3)n2)cc1` [Example 95, N-(2-{[3-[2-(Cyclopentylamino)-4-pyrimidinyl]-2-(4-methoxy-phenyl)pyrazolo[1,5-a]pyridin-7-yl]amino}ethyl)methanesulfonamide], the IC50 is 300 nM.

As to `COc1ccc(-c2nn3c(NC4CCCC4)cccc3c2-c2ccnc(NC3CC3)n2)cc1` [Example 58, N-Cyclopentyl-3-[2-(cyclopropylamino)-4-pyrimidinyl]-2-(4-methoxyphenyl)pyrazolo[1,5-a]pyridin-7-amine], the IC50 was 400 nM.

Turning to `c1cc(NC2CCCC2)n2nc(-c3ccc(OCC4CC4)cc3)c(-c3ccnc(NC4CCCC4)n3)c2c1` [Example 11, N-Cyclopentyl-3-[2-(cyclopentylamino)-4-pyrimidinyl]-2-[4-(cyclopropyl-methoxy)phenyl]pyrazolo[1,5-a]pyridin-7-amine], the IC50 stood at 300 nM.

For the molecule `Nc1nccc(-c2c(-c3ccc(O)cc3)nn3c(N4CCCC4)cccc23)n1` [Example 6, 4-[3-(2-Amino-4-pyrimidinyl)-7-(1-pyrrolidinyl)pyrazolo[1,5-a]pyridin-2-yl]phenol], the IC50 amounted to 5000 nM.

For `Brc1cccc(-c2nn3c(N4CCCC4)cccc3c2-c2ccnc(NC3CCCC3)n2)c1` [Example 26, 4-[2-(3-Bromophenyl)-7-(1-pyrrolidinyl)pyrazolo[1,5-a]pyridin-3-yl]-N-cyclopentyl-2-pyrimidinamine], the half-maximal inhibitory concentration (IC50) was determined as 600 nM.

Take `Nc1cc(-c2nn3c(NC4CCCC4)cccc3c2-c2ccnc(NC3CCCC3)n2)ccc1Cl` [Example 44, 2-(3-Amino-4-chlorophenyl)-N-cyclopentyl-3-[2-(cyclopentylamino)-4-pyrimidinyl]pyrazolo[1,5-a]pyridin-7-amine]: the concentration for half-maximal inhibition (IC50) came to 1800 nM.

As to `COCCNc1cccc2c(-c3ccnc(NC4CCCC4)n3)c(-c3cccc(Cl)c3)nn12` [Example 104, 2-(3-Chlorophenyl)-3-[2-(cyclopentylamino)-4-pyrimidinyl]-N-(2-methoxyethyl)pyrazolo[1,5-a]pyridin-7-amine], the IC50 was 200 nM.

Take `Clc1cccc(-c2nn3c(N4CCOCC4)cccc3c2-c2ccnc(NC3CCCC3)n2)c1` [Example 103, 4-[2-(3-Chlorophenyl)-7-(4-morpholinyl)pyrazolo[1,5-a]pyridin-3-yl]-N-cyclopentyl-2-pyrimidinamine]: the IC50 is 500 nM.

As to `COc1ccc(-c2nn3c(NCCN4CCOCC4)cccc3c2-c2ccnc(NC3CCCC3)n2)cc1` [Example 59, 3-[2-(Cyclopentylamino)-4-pyrimidinyl]-2-(4-methoxyphenyl)-N-[2-(4-morpholinyl)ethyl]pyrazolo[1,5-a]pyridin-7-amine], the IC50 was found to be 400 nM.

With `COC(=O)CNc1cccc2c(-c3ccnc(NC4CCCC4)n3)c(-c3ccc(OC)cc3)nn12` [Example 79, Methyl N-[3-[2-(cyclopentylamino)pyrimidin-4-yl]-2-(4-methoxyphenyl)pyrazolo[1,5-a]pyridin-7-yl]glycinate], the IC50 was 2500 nM.

In the case of `[N-]=[N+]=Nc1cccc(-c2nn3c(NC4CCCC4)cccc3c2-c2ccnc(NC3CCCC3)n2)c1` [Example 93, 2-(3-Azidophenyl)-N-cyclopentyl-3-[2-(cyclopentylamino)pyrimidin-4-yl]pyrazolo[1,5-a]pyridin-7-amine], the concentration for half-maximal inhibition (IC50) came to 700 nM.

In the case of `Fc1cccc(-c2nn3c(NC4CC4)cccc3c2-c2ccnc(NC3CCCC3)n2)c1` [Example 105, 3-[2-(Cyclopentylamino)-4-pyrimidinyl]-N-cyclopropyl-2-(3-fluorophenyl)pyrazolo[1,5-a]pyridin-7-amine], the IC50 was 600 nM.

With `N#Cc1cccc(-c2nn3c(NC4CCCC4)cccc3c2-c2ccnc(NC3CCCC3)n2)c1` [Example 39, 3-{7-(Cyclopentylamino)-3-[2-(cyclopentylamino)-4-pyrimidinyl]pyrazolo[1,5-a]pyridin-2-yl}benzonitrile], the IC50 was found to be 500 nM.

With `CCCCNc1nccc(-c2c(-c3ccc(N)cc3)nn3c(NCCCC)cccc23)n1` [Example 16, N-{4-[2-(4-Aminophenyl)-7-(butylamino)pyrazolo[1,5-a]pyridin-3-yl]-2-pyrimidinyl}-N-butylamine], the IC50 turned out to be 1000 nM.

Regarding `COc1ccc(-c2nn3c(NCCN4CCOCC4)cccc3c2-c2ccnc(NC3CC3)n2)cc1` [Example 65, 3-[2-(Cyclopropylamino)-4-pyrimidinyl]-2-(4-methoxyphenyl)-N-[2-(4-morpholinyl)ethyl]pyrazolo[1,5-a]pyridin-7-amine], the IC50 came out at 500 nM.

For `FC(F)(F)c1cccc(-c2nn3c(NC4CCCC4)cccc3c2-c2ccnc(NC3CCCC3)n2)c1` [Example 98, N-Cyclopentyl-3-[2-(cyclopentylamino)-4-pyrimidinyl]-2-[3-(trifluoromethyl)phenyl]pyrazolo[1,5-a]pyridin-7-amine], the IC50 was determined as 300 nM.

As for `c1cc(-c2cccs2)cc(-c2nn3c(NC4CCCC4)cccc3c2-c2ccnc(NC3CCCC3)n2)c1` [Example 33, N-Cyclopentyl-3-[2-(cyclopentylamino)-4-pyrimidinyl]-2-[3-(2-thienyl)-phenyl]pyrazolo[1,5-a]pyridin-7-amine], the IC50 came to 800 nM.
